Measured values as given in publication PMC10418426, “A Comprehensive Technology Platform for the Rapid Discovery of Peptide Inhibitors against SARS-CoV-2 Pseudovirus Infection” (International Journal of Molecular Sciences, 2023).
Starred links: 1 amine or outer side, 2 acyl side, 3 side chain; linkers in the order of their positions; H or OH if unused. Positions of bridges follow the written chain, without caps; N, C: chain ends. Residues, ends and D or L forms follow the SMILES beside them. mXylylene = c1cc(C[*:1])cc(C[*:2])c1

Tested on: HEK293-ACE2 cells
Settings: 1 to 100 μM, 24 h treatment plus 24 h in fresh medium, absorbance 560 nm

C[C@@H](O)[C@@H]1NC(=O)[C@@H]2CCCN2C(=O)[C@H](CCC(N)=O)NC(=O)[C@@H](N)CSCc2cccc(c2)CSC[C@@H](C(N)=O)NC(=O)[C@H](CCC(N)=O)NC(=O)[C@H](Cc2c[nH]c3ccccc23)NC(=O)CNC(=O)[C@H](CCCCN)NC(=O)CNC(=O)[C@H](CC(N)=O)NC1=O [c9_05] (H-CQPTNGKGWQC-NH2; linker 1-11 via mXylylene)
effect on cell viability (MTT): did not cause any significant decrease in cell viability
